# pEC50: −log10 of the molar value. Activity calls are given as the source filed them.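 The calls were made as follows: active = EC50 below 100 µM for activating human gut alkaline phosphatase; inactive = the rest.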
# Target: Intestinal-type alkaline phosphatase (Homo sapiens) (UniProt P09923)
# Assay: human IAP activators, SAR follow-up, biochemical, luminescence (AID 493132)
# Conditions: purified IAP, CDP-Star luminescence, 30 min
# Sequence of Intestinal-type alkaline phosphatase (Homo sapiens) (P09923 whole entry, looked up): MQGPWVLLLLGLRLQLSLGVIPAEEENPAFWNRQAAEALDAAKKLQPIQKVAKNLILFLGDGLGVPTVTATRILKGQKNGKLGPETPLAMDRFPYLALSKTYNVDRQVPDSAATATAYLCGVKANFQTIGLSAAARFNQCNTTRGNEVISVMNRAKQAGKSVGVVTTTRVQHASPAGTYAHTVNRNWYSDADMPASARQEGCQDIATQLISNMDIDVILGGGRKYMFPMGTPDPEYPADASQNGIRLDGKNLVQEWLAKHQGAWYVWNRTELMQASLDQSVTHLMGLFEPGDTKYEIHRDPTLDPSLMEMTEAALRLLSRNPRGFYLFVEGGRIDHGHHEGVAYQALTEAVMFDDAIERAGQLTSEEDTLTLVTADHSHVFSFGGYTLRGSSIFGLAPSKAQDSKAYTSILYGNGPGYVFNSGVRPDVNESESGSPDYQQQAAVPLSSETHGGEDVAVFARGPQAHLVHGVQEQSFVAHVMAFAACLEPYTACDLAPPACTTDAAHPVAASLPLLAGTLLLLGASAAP
SMILES,pEC50,EC50
COc1cc(OC)c(OC)cc1/C=N/NC(=O)C(=O)N/N=C/c1cc(OC)c(OC)cc1OC,–,> 100 µM (inactive)
COc1ccc(OC)c(/C=N/NC(=O)C(=O)N/N=C/c2cc(OC)ccc2OC)c1,4.04,–
COC(=O)c1ccc(/C=N/NC(=O)C(=O)N/N=C/c2ccc(C(=O)OC)cc2)cc1,–,> 100 µM (inactive)
O=C(N/N=C\c1cccc(O)c1)C(=O)N/N=C/c1cccc(O)c1,4.35,–
CCN(CC)c1ccc(/C=N/NC(=O)C(=O)N/N=C/c2ccc(N(CC)CC)cc2O)c(O)c1,–,> 100 µM (inactive)
CCCCOc1ccc(/C=N/NC(=O)C(=O)N/N=C/c2ccc(OCCCC)cc2)cc1,–,> 100 µM (inactive)
O=C(N/N=C/c1ccc(O)cc1)C(=O)N/N=C/c1ccc(O)cc1,4.36,–
O=C(N/N=C/c1ccc2c(c1)OCO2)C(=O)N/N=C/c1ccc2c(c1)OCO2,–,> 100 µM (inactive)
CC(C)Oc1ccccc1/C=N/NC(=O)C(=O)N/N=C/c1ccccc1OC(C)C,4.44,–
COc1cccc(C=NNC(=O)C(=O)NN=Cc2cccc(OC)c2OC)c1OC,4.52,–
O=C(NN=Cc1ccccc1)C(=O)NN=Cc1ccccc1,4.51,–
O=C(N/N=C/c1ccccc1C(=O)O)C(=O)N/N=C/c1ccccc1C(=O)O,4.41,–
N#CCOc1ccccc1/C=N/NC(=O)C(=O)N/N=C/c1ccccc1OCC#N,4.06,–
O=C(N/N=C/c1c(O)ccc2ccccc12)C(=O)N/N=C/c1c(O)ccc2ccccc12,–,> 100 µM (inactive)
CC(=O)Nc1ccc(/C=N/NC(=O)C(=O)N/N=C/c2ccc(NC(C)=O)cc2)cc1,–,> 100 µM (inactive)
CN(C)c1ccc(/C=N/NC(=O)C(=O)N/N=C/c2ccc(N(C)C)cc2)cc1,–,> 100 µM (inactive)
CCOc1cc(/C=N/NC(=O)C(=O)N/N=C/c2ccc(O)c(OCC)c2)ccc1O,–,> 100 µM (inactive)
COc1ccc(/C=N/NC(=O)C(=O)N/N=C/c2ccc(OC)c(OC)c2)cc1OC,–,> 100 µM (inactive)
CC(=NNC(=O)C(=O)NN=C(C)c1cccc(O)c1)c1cccc(O)c1,4.07,–
COc1cc(/C=N/NC(=O)C(=O)N/N=C/c2ccc(O)c(OC)c2)ccc1O,4.55,–
COc1ccc(-c2csc(Nc3cccc4ccccc34)n2)cc1F,–,> 100 µM (inactive)
O=C(N/N=C\c1ccc2c(c1)OCO2)C(=O)N/N=C/c1ccc2c(c1)OCO2,–,> 100 µM (inactive)
COc1cc(/C=N/NC(=O)C(=O)N/N=C/c2cc(OC)c(OC)c(OC)c2)cc(OC)c1OC,–,> 100 µM (inactive)

# The remaining molecules from weak to strong by pEC50, led by results:
pEC50,EC50,SMILES
4.59,–,O=C(CCN1C(=O)/C(=C/c2ccccc2Cl)SC1=S)NNC(=O)c1ccccc1O
4.71,–,COc1ccc(-c2cc(C(=O)NN=Cc3c(O)ccc4ccccc34)[nH]n2)cc1
4.72,–,COc1cc(/C=N\NC(=O)C(=O)N/N=C/c2cc(OC)c(O)c(OC)c2)cc(OC)c1O
4.72,–,Cc1ccc(O)c(C=NNC(=O)c2[nH]ncc2Br)c1
4.82,–,O=C(NNC(=S)NC(=O)c1ccccc1[N+](=O)[O-])c1ccccc1O
4.84,–,Cc1cc(C(=O)NN=Cc2cccc([N+](=O)[O-])c2O)n[nH]1
4.87,–,Cc1cc(C(=O)NN=Cc2cc(Cl)cc([N+](=O)[O-])c2O)n[nH]1
4.90,–,CCOc1cccc(C=NNC(=O)c2cc(-c3cccn3C)n[nH]2)c1O
4.93,–,COc1cc(OC)cc(C(=O)NNC(=O)c2nn(C)c(=O)c3ccccc23)c1
4.95,–,O=C(N/N=C/c1cc(Br)ccc1O)c1cc(C2CC2)[nH]n1
4.95,–,O=C(N/N=C/c1c(O)ccc2ccccc12)c1cc(-c2cccs2)[nH]n1
4.96,–,O=C(N/N=C/c1cc(Br)ccc1O)C(=O)N/N=C/c1cc(Br)ccc1O
4.97,–,CC1C(=O)NN=C1C(=O)NN=Cc1ccc(O)cc1O (stereo unspecified)
4.99,–,O=C(N/N=C/c1ccccc1O)c1cc(C2CC2)[nH]n1
5.00,–,Cn1cccc1-c1cc(C(=O)NN=Cc2cc(Br)ccc2O)[nH]n1
5.02,–,COc1cccc(C=NNC(=O)c2[nH]nc3c2CCc2ccccc2-3)c1O
5.02,–,O=C(NN=Cc1c(O)ccc2ccccc12)c1[nH]ncc1Br

pEC50,EC50,SMILES
5.03,–,O=C(NC(=S)NNC(=O)c1ccccc1O)c1ccc(F)cc1
5.03,–,Cc1cc(C(=O)N/N=C/c2cc(Br)ccc2O)n[nH]1
5.04,–,COc1cccc(C=NNC(=O)C(=O)NN=Cc2cccc(OC)c2O)c1O
5.04,–,CC(=O)Nc1cccc(C(=O)NNC(=O)c2n[nH]c(=O)c3ccccc23)c1
5.06,–,CC(C)C(=O)NC(=S)Nc1ccccc1C(=O)Nc1ccccc1
5.06,–,C/C(=N\NC(=O)c1[nH]nc2c1CCc1ccccc1-2)c1ccccc1O
5.07,–,COc1cccc(C=NNC(=O)c2cc(-c3cccn3C)n[nH]2)c1O
5.08,–,O=C(N/N=C/c1ccccc1O)c1n[nH]c2c1CCC2
5.09,–,COc1cccc(C=NNC(=O)C2=NNC(=O)C2C)c1O (stereo unspecified)
5.12,–,Cc1cc(C(=O)N/N=C\c2cc(C(C)(C)C)ccc2O)n[nH]1
5.12,–,CCOc1cccc(C=NNC(=O)c2cc(C3CC3)[nH]n2)c1O
5.17,–,OC(c1nc2ccc(F)cc2[nH]1)C(O)c1nc2ccc(F)cc2[nH]1 (stereo unspecified)
5.18,–,C/C(=N\NC(=O)c1cc(C)[nH]n1)c1ccc2ccccc2c1O
5.19,–,O=C(NN=Cc1ccc(O)cc1O)C(=O)NN=Cc1ccc(O)cc1O
5.21,–,Cc1ccc(-c2cc(C(=O)NN=Cc3ccccc3O)n[nH]2)o1
6.16,–,O=C1Nc2ccc(Br)cc2C12NNc1ccccc1O2 (stereo unspecified)
